Laboratory results: US20170000405A1, “RAPID, REPRODUCIBLE, NON-INVASIVE PREDICTOR OF CADAVERIC DONOR LIVER GRAFT UTILIZATION” (THE REGENTS OF THE UNIVERSITY OF CALIFORNIA, priority 2014, published 2017)

Conditions: human, in vivo
Description: To evaluate the method for rapid, non-invasive, quantitative assessment of liver function, performed before liver graft procurement, a LiMON liver function monitor, manufactured by Pulsion Medical Systems, Munich, Germany, was used for the assessment of brain-dead donor livers by measuring Indocyanine Green Plasma Disappearance Rates (ICG-PDRs). […] The LiMON monitor 102 measures Indocyanine Green (ICG) 104 clearance from the blood, after the ICG is administered intravenously to the donor, by non-invasive pulse-densitometry using, for example, a finger probe 106.
Injected ICG 202 is detected by a sensor 204 on the finger 206 from fractional pulsatile changes 208, 210 in optical absorption using LED lights 212. The optical peak absorption of 805 nm as shown in FIG. 2B and 905 nm as shown in FIG. 2C allows continuous measurements of ICG-PDR. The clearance of the injected dye from the blood (mg/l) can be calculated as:
The ICG-PDR is calculated as the ICG clearance (CICG) over time, as shown in the graph in FIG. 3.
Consecutive adult brain-dead donors in the local donation service area, whose livers were offered to the study center, were assessed for liver function using the methods of the current disclosure, after permission was acquired. Immediately prior to organ procurement, indocyanine green elimination tests were conducted using the non-invasive liver function monitoring system shown in FIG. 1 and FIG. 2A. Each patient received an ICG finger clip connected to a liver function monitor. A dose of 0.25 mg/kg ICG (ICG—PULSION, Pulsion Medical Systems) was given through a central vein as a bolus and immediately flushed with 10 mL of normal saline. All of the ICG-PDR measurements were acquired using the LiMON liver function monitor manufactured by Pulsion Medical Systems, Munich, Germany.

CC1(C)C(/C=C/C=C/C=C/C=C2\N(CCCCS(=O)(=O)O)c3ccc4ccccc4c3C2(C)C)=[N+](CCCCS(=O)(=O)[O-])c2ccc3ccccc3c21 [ICG, Indocyanine Green]
IGG-PDR, Mean (SD), Accepted: 24.1 (6.7) %/min
IGG-PDR, Mean (SD), Rejected: 17.9 (4.7) %/min
PDR, sample PULSION-LiMON ICG trace of a non-acceptable liver: 12.9 % clearance per minute
PDR, sample PULSION-LiMON ICG trace of an accepted liver: 21.5 % clearance per minute
